In patent publication US11066414B2, “Cot modulators and methods of use thereof” (Gilead Sciences, Inc., priority 2015, dated 2021):

test system: TNFα; experiment: Cot Monocyte TNFα Cell Based Assay; settings: Homo sapiens, Monocyte, read-out: EC50 TNF, LPS-stimulated human monocytes, TNFα

| Molecule | EC50 |
| --- | --- |
| CC(C)(C)N1CCC(n2cc([C@@H](Nc3cc(Cl)c4ncc(C#N)c(Nc5ccc(F)c(Cl)c5)c4c3)c3cccc4c3CCN4)nn2)CC1 [Example 60, (S)-6-(((1-(1-(tert-butyl)piperidin-4-yl)-1H-1,2,3-triazol-4-yl)(indolin-4-yl)methyl)amino)-8-chloro-4-((3-chloro-4-fluorophenyl)amino)quinoline-3-carbonitrile] | 0.131 µM |
| Cc1ncccc1[C@H](Nc1cc(Cl)c2ncc(C#N)c(N[C@H](C)c3ccccc3)c2c1)c1c[nH]nn1 [Example 229, 8-chloro-6-(((S)-(2-methylpyridin-3-yl)(1H-1,2,3-triazol-4-yl)methyl)amino)-4-(((R)-1-phenylethyl)amino)quinoline-3-carbonitrile] | 1.47 µM |
| Cc1nc(F)ccc1[C@H](Nc1cc(Cl)c2ncc(C#N)c(NCC(C)(C)C)c2c1)c1cn(CC2(C(F)(F)F)CC2)nn1 [Example 751, (S)-8-chloro-6-(((6-fluoro-2-methylpyridin-3-yl)(1-((1-(trifluoromethyl)-cyclopropyl)methyl)-1H-1,2,3-triazol-4-yl)methyl)amino)-4-(neopentylamino)quinoline-3-carbonitrile] | 0.23 µM |
| CC(C)n1cc([C@@H](Nc2cc(Cl)c3ncc(C#N)c(Nc4ccc(F)c(Cl)c4)c3c2)c2cncs2)nn1 [Example 303, (R)-8-chloro-4-((3-chloro-4-fluorophenyl)amino)-6-(((1-isopropyl-1H-1,2,3-triazol-4-yl)(thiazol-5-yl)methyl)amino)quinoline-3-carbonitrile] | 0.868 µM |
| CC(C)(C)CNc1c(C#N)cnc2c(Cl)cc(N[C@H](c3cn(C4(C(F)(F)F)CC4)nn3)c3ccc(F)c4cnccc34)cc12 [Example 616, (S)-8-chloro-6-(((8-fluoroisoquinolin-5-yl)(1-(1-(trifluoromethyl)cyclopropyl)-1H-1,2,3-triazol-4-yl)methyl)amino)-4-(neopentylamino)quinoline-3-carbonitrile] | 0.104 µM |
| CC(C)(C)CNc1c(C#N)cnc2c(Cl)cc(N[C@H](c3cn(C(C)(C)C(F)F)nn3)c3cccc4ncccc34)cc12 [Example 693, (S)-8-chloro-6-(((1-(1,1-difluoro-2-methylpropan-2-yl)-1H-1,2,3-triazol-4-yl)(quinolin-5-yl)methyl)amino)-4-(neopentylamino)quinoline-3-carbonitrile] | 0.141 µM |

same assay, conditions: read-out: EC50 TNF; LPS-stimulated human monocytes, TNFα

| Molecule | EC50 |
| --- | --- |
| CC(C)(C)N1CCC(n2cc([C@@H](Nc3cc(Cl)c4ncc(C#N)c(Nc5ccc(F)c(Cl)c5)c4c3)c3cccnc3)nn2)CC1 [Example 369, (S)-6-(((1-(1-(tert-butyl)piperidin-4-yl)-1H-1,2,3-triazol-4-yl)(pyridin-3-yl)methyl)amino)-8-chloro-4-((3-chloro-4-fluorophenyl)amino)quin-oline-3-carbonitrile] | 0.089 µM |

same assay, conditions: read-out: EC50 TNF; LPS-stimulated human monocytes, TNFα TR-FRET

| Molecule | EC50 |
| --- | --- |
| Cc1nc(F)ccc1[C@H](Nc1cc(Cl)c2ncc(C#N)c(NCC(C)(C)C)c2c1)c1nnn2c1OCCC2 [Example 985, (S)-8-chloro-6-(((6,7-dihydro-5H-[1,2,3]triazolo[5,l-b][1,3]oxazin-3-yl)(6-fluoro-2-methylpyridin-3-yl)methyl)amino)-4-(neopentylamino)quinoline-3-carbonitrile] | 0.126 µM |
| COc1nccc2c([C@H](Nc3cc(Cl)c4ncc(C#N)c(NCC(C)(C)C)c4c3)c3cn([C@@H](C)CF)nn3)cccc12 [Example 932, 8-chloro-6-(((S)-(1-((S)-1-fluoropropan-2-yl)-1H-1,2,3-triazol-4-yl)(1-methoxylsoquinolin-5-yl)methyl)amino)-4-(neopentylamino)quinoline-3-carbonitrile] | 0.205 µM |
| 6-(((6-fluoro-2-methylpyridin-3-yl)(1-((1- (trifluoromethyl)cyclopropyl)-1H-1,2,3- triazol-4-yl)methyl)amino)-8-(3-hydroxy- 3-methylbutyl-1-yl)-4- (neopentylamino)quinoline-3-carbonitrile [Example 982] | 1 µM |
